Columns and labels:
[1] = Circular dichroism: conformation and thermal unfolding; type: physicochemical; details: for FF @ 37°C (folded fraction): calculated from CD molar ellipticity at 224 nm: FF=CD37-CD80/CDfolded-CD80
[2] = test system: 3T3 Swiss mice fibroblasts; assay: Cellular uptake by confocal microscopy; type: cell-based; details: 15 μM peptide in PBS, 30 min; for Preferential accumulation site within the cell: confocal microscopy without DAPI; for Cellular uptake (FITC fluorescence from cells): confocal microscopy, 37°C
[3] = test system: Jurkat E6 human leukemia cells; assay: Cellular uptake by flow cytometry; type: cell-based; details: 15μM peptide, 10 min
[4] = test system: 3T3 Swiss mice fibroblasts; assay: Cell viability, Trypan Blue assay; details: 15 μM peptide in PBS, 30 min exposure, three repeats on two plates

| FF @ 37°C (folded fraction) [1] | Tm lower than Tm of V1 ([1]; difference of CD Tm values) | Substance | Preferential accumulation site within the cell [2] | Cellular uptake (FITC fluorescence from cells) [2] | Fluorescence intensity of cells lower than cells incubated with V2 [3] | Number of cells that uptake the peptide [3] | Cytotoxicity compared to control (cell viability) [4] |
| --- | --- | --- | --- | --- | --- | --- | --- |
| 0.90 |  | FITC-AβGG-POGPOGPOGPOGPOGPOGPOGPOG-RRGRRG [Peptide V1] | accumulates to larger extend in cytoplasm than V2, with only small amount reaching the nucleus | effectively penetrate the cellular membrane | about 20% | 71.2% | no significant (p>0.05) toxicity |
| 0.82 | 3.2 °C | FITC-AβGG-POGPOGPOGPOGPOGPOGPOGPOG-RRRRRR [Peptide V2] | stronger preference to accumulate within the nuclear bodies | effectively penetrate the cellular membrane |  | 72.8% | no significant (p>0.05) toxicity |
